Reference: patent US10179773B2, “Isoxazole carboxamides as irreversible SMYD inhibitors” (EPIZYME, INC., priority 2014, dated 2019)

Legend:
SMYD3 [1] = target: T1, SMYD3 (Homo sapiens (Human), UniProt Q9H7B4); test: SMYD3 Biochemical Assay (MEKK2 protein substrate, 3H-SAM, SPA); conditions: 30 min preincubation with SMYD3, average of n = 1 to n = 50, read-out: SMYD3 Biochem IC50
Excerpt: S-adenosylmethionine (SAM), S-adenosylhomocysteine (SAH), Tris, Tween20, dimethylsulfoxide (DMSO), bovine skin gelatin (BSG), and Tris(2-carboxyethyl)phosphine hydrochloride solution (TCEP) were purchased from Sigma-Aldrich at the highest level of purity possible. ^3H-SAM was purchase from American Radiolabeled Chemicals with a specific activity of 80 Ci/mmol. 384-well opaque white OptiPlates and SPA beads (Perkin Elmer, catalog # RPNQ0013) were purchased from PerkinElmer.
N-terminally GST-tagged MEKK2 (MAP3K2) protein corresponding to reference sequence AAF63496.3 was purchased from Life Technologies (catalog # PV4010). This protein was expressed in High Five insect cells and purified to >85% purity. Protein identity was confirmed by MS/MS analysis after proteolytic digestion. The protein sequence used was:
Full-length human SMYD3 isoform 1 (BAB86333) was inserted into a modified pET21b plasmid containing a His6 tag and TEV and SUMO cleavage sites. Because two common variants of SMYD3 exist in the population, site directed mutagenesis was subsequently performed to change amino acid 13 from an asparagine to a lysine, resulting in plasmid pEPZ533. A lysine at position 13 conforms to the more commonly occurring sequence (NP_001161212).
E. coli (BL21 codonplus RIL strain, Stratagene) were transformed with plasmid pEPZ553 by mixing competent cells and plasmid DNA and incubating on ice for 30 minutes followed by heat shock at 42° C. for 1 minute and cooling on ice for 2 minutes. Transformed cells were grown and selected on LB agar with 100 μg/mL ampicillin and 17 μg/mL chloramphenicol at 37° C. overnight. A single clone was used to inoculate 200 mL of LB medium with 100 μg/mL ampicillin and 17 μg/mL chloramphenicol and incubated at 37° C. on an orbital shaker at 180 rpm. Once in log growth, the culture was diluted 1:100 into 2 L of LB medium and grown until OD600 was about 0.3 after which the culture was incubated at 15° C. and 160 rpm. Once OD600 reached about 0.4, IPTG was added to a final concentration of 0.1 mM and the cells were grown overnight at 15° C. and 160 rpm. Cells were harvested by centrifugation at 8000 rpm, for 4 minutes at 4° C. and stored at −80° C. for purification.
Expressed full-length human His-tagged SMYD3 protein was purified from cell paste by Nickel affinity chromatography after equilibration of the resin with Buffer A (25 mM Tris, 200 mM NaCl, 5% glycerol, 5 mM β-mercaptoethanol, pH7.8). The column was washed with Buffer B (Buffer A plus 20 mM imidazole) and His-tagged SMYD3 was eluted with Buffer C (Buffer A plus 300 mM imidazole). The His tag, TEV and SUMO cleavage sites were removed generating native SMYD3 by addition of ULP1 protein at a ratio of 1:200 (ULP1:SMYD3). Imidazole was removed by dialysis overnight in Buffer A. The dialyzed solution was applied to a second Nickel column and the native SMYD3 protein was collected from the column flow-through. The flow-through was dialyzed in Buffer D (25 mM Tris, 5% glycerol, 5 mM β-mercaptoethanol, 50 mM NaCl, pH7.8) and ULP1 was removed using a Q sepharose fast flow column. SMYD3 was eluted in Buffer A and further purified using an S200 size-exclusion column equilibrated with Buffer A. SMYD3 was concentrated to 2 mg/mL with a final purity of 89%.
The assays were all performed in a buffer consisting of 25 mM Tris-Cl pH 8.0, 1 mM TCEP, 0.005% BSG, and 0.005% Tween 20, prepared on the day of use. Compounds in 100% DMSO (1 ul) were spotted into a 384-well white opaque OptiPlate using a Bravo automated liquid handling platform outfitted with a 384-channel head (Agilent Technologies). DMSO (1 ul) was added to Columns 11, 12, 23, 24, rows A-H for the maximum signal control and 1 ul of SAH, a known product and inhibitor of SMYD3, was added to columns 11, 12, 23, 24, rows I-P for the minimum signal control. A cocktail (40 ul) containing the SMYD3 enzyme was added by Multidrop Combi (Thermo-Fisher). […]

SMYD3 [2] = target: T1, SMYD3; test: SMYD3 Cell Assay (Trimethyl-MEKK2 In-Cell Western, 293T/17 cells); type: cell-based; conditions: 293T/17 cells transfected with MEKK2-flag and SMYD3; 24 hours; trimethyl-MEKK2 signal; average of n = 1 to n = 50
Excerpt: 293T/17 adherent cells were purchased from ATCC (American Type Culture Collection), Manassas, Va., USA. MEM/Glutamax medium, Optimem Reduced Serum medium, penicillin-streptomycin, 0.05% trypsin and 1× D-PBS were purchased from Life Technologies, Grand Island, N.Y., USA. PBS-10× was purchased from Ambion, Life Technologies, Grand Island, N.Y., USA. PBS with Tween 20 (PBST (10×)) was purchased from KPL, Gaithersburg, Md., USA. Tet System FBS-approved FBS US Source was purchased from Clontech, Mountain View, Calif., USA. Odyssey blocking buffer, 800CW goat anti-rabbit IgG (H+L) antibody, 680CW Goat anti-mouse IgG (H+L) and Licor Odyssey infrared scanner were purchased from Licor Biosciences, Lincoln, Nebr., USA. Tri-methyl-Lysine [A260]-MEKK2 antibody, MEKK2 and SMYD3 plasmids were made at Epizyme. Anti-flag monoclonal mouse antibody was purchased from Sigma, St. Louis, Mo., USA. Methanol was purchased from VWR, Franklin, Mass., USA. 10% Tween 20 was purchased from KPL, Inc., Gaithersburg, Md., USA. Fugene was purchased from Promega, Madison, Wis., USA. The Biotek ELx405 was purchased from BioTek, Winooski, Vt., USA. The multidrop combi was purchased from Thermo Scientific, Waltham, Mass., USA.
293T/17 adherent cells were maintained in growth medium (MEM/Glutamax medium supplemented with 10% v/v Tet System FBS and cultured at 37° C. under 5% CO2.
293T/17 cells were seeded in assay medium at a concentration of 33,333 cells per cm^2 in 30 mL medium per T150 flask and incubated at 37° C. under 5% CO2. Plasmids were prepared for delivery to cells by first mixing 1350 μL Opti-MEM with Fugene (81 μL) in a sterile Eppendorf and incubated for five minutes at room temperature (RT). MEKK2-flag (13.6 ug/T150) MEKK2 p3XFlag-CMV-14 with C-3XFlag and SMYD3 (0.151 ug/T150) SMYD3 p3XFlag-CMV-14 without C-3XFlag plasmids were aliquotted to a 1.7 mL sterile microfuge tube. The gene ID for MEKK2 and SMYD3 is NM_006609.3 and Q9H7B4, respectively. Entire volume of Opti-MEM/Fugene mixture was then added to a microfuge tube containing DNA plasmid, mixed and then incubated ×15 minutes at RT. The medium on the 293T/17 cells was refreshed, and the DNA/Fugene complex is added aseptically to each flask, rocked gently, and incubated at 37 C for 5 hours. Medium was then removed, and cells were washed once with PBS in the flask. Trypsin 0.05% (3 mL) was added and cells incubated for three minutes. Room temperature MEM+10% Tet system FBS was added and cells were mixed gently, and counted using the Vi-cell. Cells were seeded at 100,000 cells/mL in 50 μL MEM/10% Tet FBS/Pen/Strep to a 384 well black/clear poly-D-lysine coated plate containing test agent diluted in DMSO. The final top concentration of test compound was 40 μM. […] Plates were incubated×30 minutes at RT in low-airflow area, followed by incubation at 37° C. under 5% CO2 for 24 hours. Medium was aspirated from all wells of assay plates prior to fixation and permeabilization with ice cold (−20° C.) methanol (90 μL/well) for ten minutes. Plates were rinsed with PBS three times on BioTek ELx405. PBS was removed with a final aspiration, and Odyssey blocking buffer (50 μL/well) was added to each well and incubated for one hour at RT. Primary antibody solution was prepared (anti-trimethyl-MEKK2 at 1:600 dilution plus mouse anti-flag antibody at 1:10,000 dilution in diluent (Odyssey Blocking buffer+0.1% Tween 20)) and 20 μL per well was dispensed using the Multidrop Combi. Assay plates were then sealed with foil, and incubated overnight at 4° C. Plates were washed five times with PBS-Tween (1×) on Biotek ELx405 and blotted on paper towel to remove excess reagent. […]

T1 sequence (Q9H7B4 whole entry): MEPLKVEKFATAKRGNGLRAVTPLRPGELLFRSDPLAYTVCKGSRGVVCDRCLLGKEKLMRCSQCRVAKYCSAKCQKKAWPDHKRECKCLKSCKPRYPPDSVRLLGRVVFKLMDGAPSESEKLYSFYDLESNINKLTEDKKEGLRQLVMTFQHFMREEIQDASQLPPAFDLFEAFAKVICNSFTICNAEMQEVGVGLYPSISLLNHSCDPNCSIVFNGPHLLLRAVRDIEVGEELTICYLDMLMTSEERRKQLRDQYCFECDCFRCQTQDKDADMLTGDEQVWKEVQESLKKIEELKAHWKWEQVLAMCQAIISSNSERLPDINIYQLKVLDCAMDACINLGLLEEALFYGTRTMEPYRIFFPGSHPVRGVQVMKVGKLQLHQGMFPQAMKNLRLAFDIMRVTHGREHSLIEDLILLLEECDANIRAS

SMILES	IC50 (SMYD3 [1])	IC50 (SMYD3 [2])
C=CS(=O)(=O)N1CC(NC(=O)c2cc(C3CC3)on2)C1 [Cpd. No. 1, 5-cyclopropyl-N-(1-(vinylsulfonyl)azetidin-3-yl) isoxazole-3-carboxamide]	> 10 µM	> 10 µM
C=CS(=O)(=O)N[C@H]1CC[C@H](NC(=O)c2cc(C3CC3)on2)CC1 [Cpd. No. 2, 5-cyclopropyl-N-((1r,4r)-4-(vinylsulfonamido)cyclohexyl) isoxazole-3-carboxamide]	31 µM	
O=C(NC1CCN(C(=O)CCl)CC1)c1cc(C2CC2)on1 [Cpd. No. 4, N-(1-(2-chloroacetyl)piperidin-4-yl)-5-cyclopropylisoxazole-3-carboxamide]	33.5 µM	6.65 µM
C=CC(=O)N1CCC(NC(=O)c2cc(C3CC3)on2)CC1 [Cpd. No. 5, N-(1-acryloylpiperidin-4-yl)-5-cyclopropylisoxazole-3-carboxamide]	> 100 µM	> 10 µM
C=CC(=O)N[C@H]1CC[C@H](NC(=O)c2cc(C3CC3)on2)CC1 [compound 3, N-((1r,4r)-4-acrylamidocyclohexyl)-5-cyclopropylisoxazole-3-carboxamide]	74.1 µM	> 10 µM
C=CS(=O)(=O)N1CCC(NC(=O)c2cc(C3CC3)on2)C[C@@H]1C (stereo partly drawn) [compound 6, 5-cyclopropyl-N-((2S)-2-methyl-1-(vinylsulfonyl)piperidin-4-yl) isoxazole-3-carboxamide]	5.27 µM	2.12 µM
C=CS(=O)(=O)N1CCC(NC(=O)c2cc(C3CC3)on2)C[C@H]1C (stereo partly drawn) [compound 7, 5-cyclopropyl-N-((2R)-2-methyl-1-(vinylsulfonyl)piperidin-4-yl) isoxazole-3-carboxamide]	3.68 µM	2.19 µM
C=CS(=O)(=O)N[C@H]1CC[C@@H](NC(=O)c2cc(C3CC3)on2)CC1 [compound 8, 5-cyclopropyl-N-((1s,4s)-4-(vinylsulfonamido)cyclohexyl) isoxazole-3-carboxamide]	> 10 µM	> 10 µM
C=CS(=O)(=O)N1CCC(NC(=O)c2cc(C3CC3)on2)CC1 [compound 9, 5-cyclopropyl-N-(1-(vinylsulfonyl)piperidin-4-yl) isoxazole-3-carboxamide]	31.7 µM	
C=CS(=O)(=O)N1CCC(NC(=O)c2cc(C3CC3)on2)C1 (centres unmarked) [compound 10, 5-cyclopropyl-N-(1-(vinylsulfonyl)pyrrolidin-3-yl) isoxazole-3-carboxamide]	> 50 µM	
